Experimental findings from patent publication US5998442A, “Benzo [B] thiophene compounds, and compositions for treating bone loss, and hyperlipidemia” (Eli Lilly and Company, priority 1997, dated 1999) are described below.

Like-named read-outs stand apart in the source and are kept apart here.

For assay [1], the system named is serum cholesterol, ovariectomized rats. Briefly: Serum cholesterol in ovariectomized rats (4 days daily oral dosing). It counts as in vivo, rat (female Sprague Dawley). To be noted: Rattus norvegicus, 96 h, read-out: Serum Cholesterol (% decrease vs. OVX); for inhibition in vivo at 0.1 mg/kg: 0.1 mg/kg PO; for inhibition in vivo at 1 mg/kg: 1.0 mg/kg PO; for inhibition in vivo at 10 mg/kg: 10.0 mg/kg PO. Here is the method:
(§1) In the examples illustrating the methods, a postmenopausal model was used in which effects of different treatments upon circulating lipids were determined.
(§2) Seventy-five day old female Sprague Dawley rats (weight range of 200 to 225 g) were obtained from Charles River Laboratories (Portage, Mich.). The animals were either bilaterally ovariectomized (OVX) or exposed to a Sham surgical procedure at Charles River Laboratories, and then shipped after one week. Upon arrival, they were housed in metal hanging cages in groups of 3 or 4 per cage and had ad libitum access to food (calcium content approximately 0.5%) and water for one week. Room temperature was maintained at 22.2°±1.70° C. with a minimum relative humidity of 40%. The photoperiod in the room was 12 hours light and 12 hours dark.
(§3) After a one week acclimation period (therefore, two weeks post-OVX) daily dosing with test compound was initiated. […] Animals were dosed daily for 4 days. Following the dosing regimen, animals were weighed and anesthetized with a ketamine: Xylazine (2:1, V:V) mixture and a blood sample was collected by cardiac puncture. The animals were then sacrificed by asphyxiation with CO2, the uterus was removed through a midline incision, and a wet uterine weight was determined.
Blood samples were allowed to clot at room temperature for 2 hours, and serum was obtained following centrifugation for 10 minutes at 3000 rpm. Serum cholesterol was determined using a Boehringer Mannheim Diagnostics high performance cholesterol assay. Briefly the cholesterol was oxidized to cholest-4-en-3-one and hydrogen peroxide. The hydrogen peroxide was then reacted with phenol and 4-aminophenazone in the presence of peroxidase to produce a p-quinone imine dye, which was read spectrophotemetrically at 500 nm. Cholesterol concentration was then calculated against a standard curve. The entire assay was automated using a Biomek Automated Workstation. […]
(§4) The data presented in Table 1 below reflects the response of 5 to 6 rats per treatment.

Assay [2] deals with uterus, ovariectomized rats. The assay can be described thus: Uterine weight in ovariectomized rats (4 days daily oral dosing). It is filed as in vivo, rat (female Sprague Dawley). The settings on record: Rattus norvegicus, 96 h, read-out: Uterine weight (% increase vs. OVX); for change in vivo at 0.1 mg/kg: 0.1 mg/kg PO; for change in vivo at 1 mg/kg: 1.0 mg/kg PO; for change in vivo at 10 mg/kg: 10.0 mg/kg PO. Here is the method:
as §1, §2, §3
This uterine response to estrogen is well recognized in the art.
as §4

The subject of assay [3] is Uterine Eosinophil Peroxidase (EPO). The assay can be described thus: Uterine Eosinophil Peroxidase (EPO) Assay in ovariectomized rats. Further details: Uterine EPO (Vmax): unit not given here. It counts as in vivo, rat (female Sprague Dawley).
Excerpt: as §2, §3
Uteri were kept at 4° C. until time of enzymatic analysis. The uteri were then homogenized in 50 volumes of 50 mM Tris buffer (pH-8.0) containing 0.005% Triton X-100. Upon addition of 0.01% hydrogen peroxide and 10 mM O-phenylenediamine (final concentrations) in Tris buffer, increase in absorbance was monitored for one minute at 450 nm. The presence of eosonophils in the uterus is an indication of estrogenic activity of a compound. The maximal velocity of a 15 second interval was determined over the initial, linear portion of the reaction curve.
As is expressed in the data below, estrogenicity also was assessed by evaluating the adverse response of eosinophil infiltration into the uterus.
as §4

In assay [4] the test system is Distal Femur Metaphysis, ovariectomized rats. The assay can be described thus: Osteoporosis Test Procedure: distal femur metaphysis X-ray image analysis. It counts as in vivo, rat. The settings on record: 35 days. Here is the method:
Following the General Preparation Procedure, infra, the rats were treated daily for 35 days (6 rats per treatment group) and sacrificed by carbon dioxide asphyxiation on the 36th day. The 35 day time period was sufficient to allow maximal reduction in bone density, measured as described herein. At the time of sacrifice, the uteri were removed, dissected free of extraneous tissue, and the fluid contents were expelled before determination of wet weight in order to confirm estrogen deficiency associated with complete ovariectomy. […] The uteri were then placed in 10% neutral buffered formalin to allow for subsequent histological analysis. The right femurs were excised and digitilized x-rays generated and analyzed by an image analysis program (NIH image) at the distal metaphysis. The proximal aspect of the tibiae from these animals were also scanned by quantitative computed tomography. […] Distal femur metaphysis and proximal tibiae data presented in Tables 2 and 3 below, respectively are the results of formula I compound treatments compared to intact and ovariectomized test animals. Results are reported as percent protection relative to ovariectomy.

Assay [5] concerns MCF-7 breast adenocarcinoma cells. The assay can be described thus: MCF-7 Proliferation Assay (tritiated thymidine). It is filed as cell-based. Here is the method: MCF-7 breast adenocarcinoma cells (ATCC HTB 22) were maintained in MEM (minimal essential medium, phenol red-free, Sigma, St. Louis, Mo.) supplimented with 10% fetal bovine serum (FBS) (V/V), L-glutamine (2 mM), sodium pyruvate (1 mM), HEPES {(N-[2-hydroxyethyl]piperazine-N'-[2-ethanesulfonic acid]10 mM}, non-essential amino acids and bovine insulin (1 ug/mL) (maintenance medium). Ten days prior to assay, MCF-7 cells were switched to maintenance medium supplemented with 10% dextran coated charcoal stripped fetal bovine serum (DCC-FBS) assay medium) in place of 10% FBS to deplete internal stores of steroids. MCF-7 cells were removed from maintenance flasks using cell dissociation medium (Ca++/Mg++ free HBSS (phenol red-free) supplemented with 10 mM HEPES and 2 mM EDTA). Cells were washed twice with assay medium and adjusted to 80,000 cells/mL. Approximately […] (8,000 cells) were added to flat-bottom microculture wells (Costar 3596) and incubated at 37° C. in a 5% CO2 humidified incubator for 48 hours to allow for cell adherence and equilibration after transfer. Serial dilutions of drugs or DMSO as a diluent control were prepared in assay medium and […] to triplicate microcultures followed by […] assay medium for a final volume of […]. After an additional 48 hours at 37° C. in a 5% CO2 humidified incubator, microcultures were pulsed with tritiated thymidine (1 uCi/well) for 4 hours. Cultures were terminated by freezing at -70° C. for 24 hours followed by thawing and harvesting of microcultures using a Skatron Semiautomatic Cell Harvester. Samples were counted by liquid scintillation using a Wallac BetaPlace b counter. Results in Table 4 below show the IC50 for certain compounds of the instant invention. […]

[6] abbreviates: Homo sapiens, MCF7, 48 hours, read-out: IC50.

As usually defined, the IC50 is the concentration needed to halve the response being measured. In the case of `O=C(c1ccc(OCCN2CCCCC2)cc1)c1c(-c2ccc(O)c(F)c2)sc2cc(O)ccc12` [Example 2, [2-(3-fluoro-4-hydroxyphenyl)-6-hydroxybenzo[b]thien-3-yl][4-[2-(1-piperidinyl)ethoxy]phenyl]methanone], the inhibition in vivo at 0.01 mg/kg in assay [1] (0.01 mg/kg PO) was determined as 21.7%. Moreover, the inhibition in vivo at 0.1 mg/kg in assay [1] was determined as 48.1%. Moreover, the inhibition in vivo at 1 mg/kg in assay [1] was 64.7%. Moreover, the inhibition in vivo at 10 mg/kg in assay [1] was found to be 47.8%. In addition, the change in vivo at 0.01 mg/kg in assay [2] (0.01 mg/kg PO) was 3.2%. Moreover, in assay [2], the change in vivo at 0.1 mg/kg was found to be 53.3%. Also, in assay [2], the change in vivo at 1 mg/kg was determined as 53.7%. In addition, the change in vivo at 10 mg/kg in assay [2] turned out to be 25.9%. Further, the “Uterine EPO (Vmax)” value in assay [3] (0.01 mg/kg PO) was determined as 4.8; in assay [3] (0.1 mg/kg PO) it was 4.8; in assay [3] (1.0 mg/kg PO) it was 4.8; in assay [3] (10.0 mg/kg PO) it was 3.6. In addition, the “Distal Femur Metaphysis (X-ray Image Analysis-Gray Score), percent protection relative to ovariectomy” value was 34.5% in assay [4] (0.01 mg/kg oral), 34.1% in assay [4] (0.1 mg/kg oral), 68.0% in assay [4] (1.0 mg/kg oral) and 70.0% in assay [4] (10.0 mg/kg oral). Also, the IC50 in assay [5] (setting [6]) is 0.3 nM.

Regarding `COc1ccc2c(C(=O)c3ccc(OCCN4CCCCC4)cc3)c(-c3ccc(C(F)(F)F)cc3)sc2c1` [Example 19, [2-(4-Trifluoromethylphenyl)-6-methoxybenzo[b]thien-3-yl][4-[2-(1-piperidinyl)ethoxy]phenyl]methanone], in assay [1], the inhibition in vivo at 0.1 mg/kg came out at 22.3%, the inhibition in vivo at 1 mg/kg was found to be 3.1% and the inhibition in vivo at 10 mg/kg is 20.6%. In assay [2], the change in vivo at 0.1 mg/kg came to 10.3%, the change in vivo at 1 mg/kg worked out at 15.6% and the change in vivo at 10 mg/kg was 16.6%. Further, in assay [3] (0.1 mg/kg PO), the “Uterine EPO (Vmax)” value amounted to 6.8. For the same molecule, in assay [3] (1.0 mg/kg PO), the “Uterine EPO (Vmax)” value was 4.3. The “Uterine EPO (Vmax)” value in assay [3] (10.0 mg/kg PO) is 4. Moreover, in assay [5] (48 hours), the IC50 entry is given as “Not active”.

In the case of `O=C(c1ccc(OCCN2CCCCC2)cc1)c1c(-c2ccc(C(F)(F)F)cc2)sc2cc(O)ccc12` [Example 20, [2-(4-Trifluoromethylphenyl)-6-hydroxybenzo[b]thien-3-yl][4-[2-(1-piperidinyl)ethoxy]phenyl]methanone], in assay [1], the inhibition in vivo at 0.1 mg/kg was determined as 45.5% and the inhibition in vivo at 1 mg/kg is 47.9%. The inhibition in vivo at 5 mg/kg in assay [1] (5.0 mg/kg PO) was determined as 71.5%. Further, in assay [2], the change in vivo at 0.1 mg/kg is -2% and the change in vivo at 1 mg/kg was 7%. The change in vivo at 5 mg/kg in assay [2] (5.0 mg/kg PO) amounted to 37.4%. Further, the “Uterine EPO (Vmax)” value in assay [3] (0.1 mg/kg PO) was determined as 1.8. In assay [3] (1.0 mg/kg PO), the “Uterine EPO (Vmax)” value is given as 7. The “Uterine EPO (Vmax)” value in assay [3] (5.0 mg/kg PO) is reported as 16.4. Besides, the IC50 in assay [5] (setting [6]) was determined as 1000 nM.

As to `COc1ccc2c(C(=O)c3ccc(OCCN4CCCCC4)cc3)c(-c3cccc(F)c3)sc2c1` [Example 21, [2-(3-Fluorophenyl)-6-methoxybenzo[b]thien-3-yl] [4-[2-(1-piperidinyl)ethoxy]phenyl]methanone], in assay [1], the inhibition in vivo at 0.1 mg/kg stood at 1.4%, the inhibition in vivo at 1 mg/kg is -12% and the inhibition in vivo at 10 mg/kg is 60.5%. In assay [2], the change in vivo at 0.1 mg/kg was 14.9%, the change in vivo at 1 mg/kg stood at 4.1% and the change in vivo at 10 mg/kg is 25.3%. Also, the “Uterine EPO (Vmax)” value in assay [3] (0.1 mg/kg PO) is given as 4.5. Also, in assay [3] (1.0 mg/kg PO), the “Uterine EPO (Vmax)” value amounted to 4.8. For the same molecule, in assay [3] (10.0 mg/kg PO), the “Uterine EPO (Vmax)” value was found to be 7.5. Moreover, the IC50 in assay [5] (setting [6]) came out at 500 nM.

For the molecule `O=C(c1ccc(OCCN2CCCCC2)cc1)c1c(-c2cccc(F)c2)sc2cc(O)ccc12` [Example 22, [2-(3-Fluorophenyl)-6-hydroxybenzothien-3-yl] [4-[2-(1-piperidinyl)ethoxy]phenyl]methanone], in assay [1], the inhibition in vivo at 0.1 mg/kg was found to be 18.6%, the inhibition in vivo at 1 mg/kg is 62% and the inhibition in vivo at 10 mg/kg was 67.3%. In addition, in assay [2], the change in vivo at 0.1 mg/kg came out at 53.2%, the change in vivo at 1 mg/kg was determined as 62.8% and the change in vivo at 10 mg/kg stood at 26.9%. Further, in assay [3] (0.1 mg/kg PO), the “Uterine EPO (Vmax)” value turned out to be 4.8. Moreover, in assay [3] (1.0 mg/kg PO), the “Uterine EPO (Vmax)” value amounted to 7.8. Moreover, the “Uterine EPO (Vmax)” value in assay [3] (10.0 mg/kg PO) worked out at 12.0. For the same molecule, the IC50 in assay [5] (setting [6]) was found to be 2.5 nM.

Regarding `Cc1ccccc1-c1sc2cc(O)ccc2c1C(=O)c1ccc(OCCN2CCCCC2)cc1` [Example 23, [2-(2-Methylphenyl)-6-hydroxybenzo[b]thien-3-yl] [4-[2-(1-piperidinyl)ethoxy]phenyl]methanone], in assay [1], the inhibition in vivo at 0.1 mg/kg was determined as 31.7%, the inhibition in vivo at 1 mg/kg was 38.6% and the inhibition in vivo at 10 mg/kg was determined as 29.3%. For the same molecule, in assay [2], the change in vivo at 0.1 mg/kg was found to be 8.5%, the change in vivo at 1 mg/kg turned out to be 12% and the change in vivo at 10 mg/kg was found to be 10.9%. For the same molecule, the “Uterine EPO (Vmax)” value in assay [3] (0.1 mg/kg PO) is 12.0. Further, the “Uterine EPO (Vmax)” value in assay [3] (1.0 mg/kg PO) was 8.4. Further, in assay [3] (10.0 mg/kg PO), the “Uterine EPO (Vmax)” value was determined as 8.1. Besides, the IC50 in assay [5] (setting [6]) worked out at 0.7 nM.
